Data published in patent US6737383B1, “Herbicidal oxadiazolidines” (priority 1999, dated 2004).

Key:
corn = assay: Test B pre/postemergence corn; assay type: in vivo, Zea mays
Outline: (§1)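 Response is a visual 0-to-10 score relative to untreated plants, where 0 means no effect and 10 means complete control, taken twelve to sixteen days after application. Treatments went onto soil at planting and onto foliage of 1- to 4-leaf plants, using a surfactant-containing non-phytotoxic solvent.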

giant foxtail = assay: Test B pre/postemergence giant foxtail; assay type: in vivo, Setaria faberii
Outline: as §1

crabgrass = assay: Test B pre/postemergence crabgrass; assay type: in vivo, Digitaria sanguinalis
Outline: as §1

sugar beet = assay: Test B pre/postemergence sugar beet; assay type: in vivo, Beta vulgaris
Outline: as §1

blackgrass = assay: Test B pre/postemergence blackgrass; assay type: in vivo, Alopecurus myosuroides
Outline: as §1

velvetleaf = assay: Test B pre/postemergence velvetleaf; assay type: in vivo, Abutilon theophrasti
Outline: as §1

bedstraw = assay: Test B pre/postemergence bedstraw; assay type: in vivo, Galium aparine
Outline: as §1

duck salad = assay: Test B flood test duck salad; assay type: in vivo, Heteranthera limosa
Outline: (§2)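 Flood test on plants grown to the 2-leaf stage; treated plants kept in greenhouse twelve to sixteen days, then visually rated against controls on a 0 (no effect) to 10 (complete control) scale.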

purple nutsedge = assay: Test B pre/postemergence purple nutsedge; assay type: in vivo, Cyperus rotundus
Outline: as §1

surinam grass = assay: Test B pre/postemergence surinam grass; assay type: in vivo, Brachiaria decumbens
Outline: as §1

wild oat = assay: Test B pre/postemergence wild oat; assay type: in vivo, Avena fatua
Outline: as §1

pigweed = assay: Test B pre/postemergence pigweed; assay type: in vivo, Amaranthus retroflexus
Outline: as §1

wheat = assay: Test B pre/postemergence wheat; assay type: in vivo, Triticum aestivum
Outline: as §1

soybean = assay: Test B pre/postemergence soybean; assay type: in vivo, Glycine max
Outline: as §1

cocklebur = assay: Test B pre/postemergence cocklebur; assay type: in vivo, Xanthium strumarium
Outline: as §1

rice = assay: Test B flood test rice; assay type: in vivo, Oryza sativa
Outline: as §2

[1] = Postemergence, Rate 62 g/ha, scale 0 to 10, 0 is no effect, 10 is complete control
[2] = Postemergence, Rate 125 g/ha, scale of 0 to 10 where 0 is no effect and 10 is complete control
[3] = Postemergence, Rate 250 g/ha, scale of 0 to 10, 0 is no effect, 10 is complete control
[4] = Postemergence, Rate 500 g/ha, scale of 0 to 10 where 0 is no effect and 10 is complete control
[5] = Preemergence, Rate 62 g/ha, scale of 0 to 10 where 0 is no effect and 10 is complete control
[6] = Preemergence, Rate 125 g/ha, scale of 0 to 10 where 0 is no effect and 10 is complete control
[7] = Preemergence, Rate 250 g/ha, scale 0 to 10 (0 no effect, 10 complete control)
[8] = Preemergence, Rate 500 g/ha, scale of 0 to 10 where 0 is no effect and 10 is complete control
[9] = Rate 62 g/ha, flood test species, Pre-emergence, visual evaluation after twelve to sixteen days
[10] = Rate 125 g/ha, under heading Pre-emergence, flood test species, visual evaluation after twelve to sixteen days
[11] = Rate 250 g/ha, Pre-emergence (flood test species), scale 0 to 10, 0 is no effect, 10 is complete control
[12] = Rate 500 g/ha, Pre-emergence section of Table B, 0 to 10 scale (0 no effect, 10 complete control)

CC(C)N(C(=O)n1oc(=O)n(Cc2nnc(Cl)s2)c1=O)c1ccc(F)cc1 [Compound 646]
Plant response rating, Corn (corn; [1]): 0
Corn plant response rating (corn; [2]): 0
Corn plant response rating (corn; [3]): 0
Plant response rating, Corn (corn; [4]): 0
Corn plant response rating (corn; [5]): 0
Corn plant response rating (corn; [6]): 0
Plant response rating, Corn (corn; [7]): 0
Plant response rating, Corn (corn; [8]): 0
Plant response rating, Giant foxtail (giant foxtail; [1]): 0
Giant foxtail plant response rating (giant foxtail; [2]): 0
Giant foxtail plant response rating (giant foxtail; [3]): 0
Plant response rating, Giant foxtail (giant foxtail; [4]): 0
Giant foxtail plant response rating (giant foxtail; [5]): 0
Giant foxtail plant response rating (giant foxtail; [6]): 0
Plant response rating, Giant foxtail (giant foxtail; [7]): 0
Plant response rating, Giant foxtail (giant foxtail; [8]): 0
Plant response rating, Crabgrass (crabgrass; [1]): 0
Crabgrass plant response rating (crabgrass; [2]): 0
Crabgrass plant response rating (crabgrass; [3]): 0
Plant response rating, Crabgrass (crabgrass; [4]): 1
Crabgrass plant response rating (crabgrass; [6]): 0
Plant response rating, Crabgrass (crabgrass; [7]): 0
Plant response rating, Crabgrass (crabgrass; [8]): 0
Plant response rating, Sugarbeets (sugar beet; [1]): 0
Sugarbeets plant response rating (sugar beet; [2]): 0
Sugarbeets plant response rating (sugar beet; [5]): 0
Sugarbeets plant response rating (sugar beet; [6]): 0
Plant response rating, Sugarbeets (sugar beet; [7]): 0
Plant response rating, Sugarbeets (sugar beet; [8]): 0
Plant response rating, Blackgrass (blackgrass; [1]): 0
Blackgrass plant response rating (blackgrass; [2]): 0
Blackgrass plant response rating (blackgrass; [3]): 0
Plant response rating, Blackgrass (blackgrass; [4]): 0
Blackgrass plant response rating (blackgrass; [5]): 0
Blackgrass plant response rating (blackgrass; [6]): 0
Plant response rating, Blackgrass (blackgrass; [7]): 0
Plant response rating, Blackgrass (blackgrass; [8]): 0
Plant response rating, Velvetleaf (velvetleaf; [1]): 0
Velvetleaf plant response rating (velvetleaf; [2]): 0
Velvetleaf plant response rating (velvetleaf; [5]): 0
Velvetleaf plant response rating (velvetleaf; [6]): 0
Plant response rating, Velvetleaf (velvetleaf; [7]): 0
Plant response rating, Velvetleaf (velvetleaf; [8]): 0
Plant response rating, Bedstraw (bedstraw; [1]): 0
Bedstraw plant response rating (bedstraw; [3]): 0
Bedstraw plant response rating (bedstraw; [5]): 0
Plant response rating, Ducksalad (0 to 10 scale, 0 is no effect, 10 is complete control) (duck salad; [9]): 0
Ducksalad plant response rating (0 to 10 scale, 0 is no effect, 10 is complete control) (duck salad; [10]): 0
Ducksalad plant response rating (duck salad; [11]): 0
Ducksalad plant response rating (duck salad; [12]): 0
Plant response rating, Nutsedge (purple nutsedge; [1]): 0
Nutsedge plant response rating (purple nutsedge; [2]): 0
Plant response rating, Nutsedge (purple nutsedge; [4]): 0
Nutsedge plant response rating (purple nutsedge; [5]): 0
Nutsedge plant response rating (purple nutsedge; [6]): 0
Plant response rating, Nutsedge (purple nutsedge; [7]): 0
Plant response rating, Nutsedge (purple nutsedge; [8]): 0
Plant response rating, B. signalgrass (surinam grass; [1]): 0
Plant response rating, B. signalgrass (surinam grass; [2]): 0
B. signalgrass plant response rating (surinam grass; [3]): 0
Plant response rating, B. signalgrass (surinam grass; [4]): 0
B. signalgrass plant response rating (surinam grass; [5]): 0
B. signalgrass plant response rating (surinam grass; [6]): 0
Plant response rating, B. signalgrass (surinam grass; [7]): 0
Plant response rating, B. signalgrass (surinam grass; [8]): 0
Plant response rating, Wild oats (wild oat; [1]): 0
Wild oats plant response rating (wild oat; [2]): 0
Wild oats plant response rating (wild oat; [5]): 0
Wild oats plant response rating (wild oat; [6]): 0
Plant response rating, Wild oats (wild oat; [7]): 0
Plant response rating, Wild oats (wild oat; [8]): 0
Plant response rating, Redroot pigweed (pigweed; [1]): 0
Redroot pigweed plant response rating (pigweed; [2]): 0
Redroot pigweed plant response rating (pigweed; [5]): 0
Redroot pigweed plant response rating (pigweed; [6]): 0
Plant response rating, Redroot pigweed (pigweed; [7]): 0
Plant response rating, Redroot pigweed (pigweed; [8]): 0
Plant response rating, Wheat (wheat; [1]): 0
Wheat plant response rating (wheat; [2]): 0
Wheat plant response rating (wheat; [5]): 0
Wheat plant response rating (wheat; [6]): 0
Plant response rating, Wheat (wheat; [7]): 0
Plant response rating, Wheat (wheat; [8]): 0
Plant response rating, Soybean (soybean; [1]): 0
Soybean plant response rating (soybean; [2]): 1
Soybean plant response rating (soybean; [5]): 0
Soybean plant response rating (soybean; [6]): 0
Plant response rating, Soybean (soybean; [7]): 0
Plant response rating, Soybean (soybean; [8]): 0
Plant response rating, Cocklebur (cocklebur; [1]): 0
Cocklebur plant response rating (cocklebur; [2]): 0
Cocklebur plant response rating (cocklebur; [3]): 0
Plant response rating, Cocklebur (cocklebur; [4]): 0
Cocklebur plant response rating (cocklebur; [5]): 0
Cocklebur plant response rating (cocklebur; [6]): 0
Plant response rating, Cocklebur (cocklebur; [7]): 0
Plant response rating, Cocklebur (cocklebur; [8]): 0
Plant response rating, Rice (0 to 10 scale, 0 is no effect, 10 is complete control) (rice; [9]): 0
Rice plant response rating (0 to 10 scale, 0 is no effect, 10 is complete control) (rice; [10]): 0
Rice plant response rating (rice; [11]): 0
Rice plant response rating (rice; [12]): 0
